Measurements from patent US9416130B2, “4-(8-methoxy-1-((1-methoxypropan-2-yl)-2-(tetrahydro-2H-pyran-4-yl)-1 H-imidazo[4,5-C]quinolin-7-yl)-3,5-dimethylisoxazole and its use as bromodomain inhibitor” (GlaxoSmithKline LLC, priority 2011, dated 2016).
Where two headings read alike, the source gives them in different places. One block for each molecule: values may come before it.

Columns and labels:
[1] = test system: LPS induced IL-6 secretion from whole blood; assay: LPS induced IL-6 secretion from whole blood; assay type: cell-based; settings: LPS 200 ng/ml, 24 hours, IL-6 immunoassay
Protocol: Measurement of LPS Induced IL-6 Secretion from Whole Blood
Activation of monocytic cells by agonists of toll-like receptors such as bacterial lipopolysaccharide (LPS) results in production of key inflammatory mediators including IL-6. Such pathways are widely considered to be central to the pathophysiology of a range of auto-immune and inflammatory disorders.
Compounds to be tested are diluted to give a range of appropriate concentrations of which 1 μl of the diluted stocks is added to a 96 well plate. Following addition of whole blood (130 ul) the plates are incubated at 37 degrees (5% CO2) for 30 min before the addition of 10 μl of 2.8 ug/ml LPS, diluted in complete RPMI 1640 (final concentration=200 ng/ml), to give a total volume of 140 μl per well. After further incubation for 24 hours at 37 degrees, 140 μl of PBS are added to each well. The plates are sealed, shaken for 10 minutes and then centrifuged (2500 rpm×10 min). 100 μl of the supernatant are removed and IL-6 levels assayed by immunoassay (typically by MesoScale Discovery technology) either immediately or following storage at −20 degrees. Concentration response curves for each compound was generated from the data and an IC50 value was calculated

LPS-induced serum IL-6 = assay: In vivo mouse model to demonstrate modulation of pro-inflammatory response (i.v. LPS); parameters: species or system Male CD1 mice; settings: for reduced maximum (Cmax) IL-6 levels / reduced total exposures (AUC) of IL-6: 1 h before i.v. LPS 100 μg/kg, mouse
Protocol: Male CD1 mice (25-30 g, n=4 per group) received a single i.v. bolus injection of LPS (100 μg/kg) via the tail vein 1 h after pre-treatment with a single oral administration of either vehicle (1% (w/v) methylcellulose in sterile water) or the test compound (3, 10 and 30 mg/kg). Serial blood samples were obtained from the tail vein by direct venepuncture at various time points up to 5 h post-LPS administration for analysis of IL-6 and the test compound concentrations by Meso Scale Discovery (MSD) analysis and LC-MS/MS respectively.

[2] = test system: Multiple myeloma cell lines; assay: Oncology cell growth assay (384-well, CellTiter-Glo); assay type: cell-based, Human
Protocol: (§1) Oncology Cell Growth Assay
(§2) Human cell lines (n=80 comprising cell lines described in Table 2 below) were cultured in RPMI-1640 containing 10% fetal bovine serum, 1000 viable cells per well were plated in 384-well black flat bottom polystyrene plates (Greiner #781086) in 48 μl of culture media. All plates were placed at 5% CO2, 37° C. overnight. The following day one plate was harvested with CellTiter-Glo (CTG, Promega #G7573) for a time equal to 0 (T0) measurement and compound (20 point titration from 14.7 uM to 7 pM) was added to the remaining plates. The final concentration of DMSO in all wells was 0.15%. Cells were incubated for 72 hours or the indicated time and each plate was developed with CellTiter-Glo reagent using a volume equivalent to the cell culture volume in the wells. Plates were shaken for approximately 2 minutes and chemiluminescent signal was read on the Analyst GT (Molecular Devices) or EnVision Plate Reader (Perkin Elmer).
(§3) Results are expressed as a percent of the T0 and plotted against the compound concentration. The T0 value was normalized to 100% and represents the number of cells at time of compound addition and the concentration response data were fit with a 4 parameter curve fit using XLfit software (model 205). The concentration that inhibited cell growth by 50% (gIC50) is the midpoint of the ‘growth window’ (between the T0 and DMSO control). The Ymin−T0 value is determined by subtracting the T0 value (100%) from the Ymin value (%) determined from the fit of the concentration response curve. Values from the wells with no cells were subtracted from all samples for background correction.

[3] = test system: Cervical cancer cell lines; assay: as above; assay type: cell-based; settings: Homo sapiens; range over 4 cervical cancer cell lines; read-out: gIC50
Protocol: as §1, §2, §3

Esophageal cell lines = assay: as above; assay type: cell-based; settings: Homo sapiens
Protocol: as §1, §2, §3

[4] = test system: NUT-midline carcinoma cell lines; assay: as above; assay type: cell-based; settings: Homo sapiens; range over 2 NUT-midline carcinoma cell lines; read-out: gIC50
Protocol: as §1, §2, §3

Neuroblastoma cell lines = assay: as above; assay type: cell-based; settings: Homo sapiens
Protocol: as §1, §2, §3

[5] = test system: Small cell lung cancer (SCLC) cell lines; assay: as above; assay type: cell-based; settings: Homo sapiens
Protocol: as §1, §2, §3

[6] = test system: Acute monocytic leukemia cell line; assay: Oncology cell growth assay (analogous procedure, 96 well plates); assay type: cell-based; settings: Homo sapiens, 1 acute monocytic leukemia line, read-out: gIC50
Protocol: as §2, §3
(§4) The compound of Example 2 was also tested in accordance with an analogous procedure using 96 well plates along with appropriate modifications to volumes and concentrations that would be apparent to those skilled in the art.

[7] = test system: Acute promyelocytic leukemia cell line; assay: as above; assay type: cell-based; settings: Homo sapiens, 1 acute promyelocytic leukemia line, read-out: gIC50
Protocol: as §2, §3, §4

[8] = test system: Breast cancer (ductal) cell line; assay: as above; assay type: cell-based; settings: Homo sapiens, 1 breast cancer (ductal) line, read-out: gIC50
Protocol: as §2, §3, §4

[9] = test system: Burkitt's lymphoma cell lines; assay: as above; assay type: cell-based; settings: Homo sapiens, Burkitts lymphoma cell, range over 3 Burkitt's lymphoma lines, read-out: gIC50
Protocol: as §2, §3, §4

[10] = test system: Chronic myeloid leukemia cell line; assay: as above; assay type: cell-based; settings: Homo sapiens, 1 chronic myeloid leukemia line, read-out: gIC50
Protocol: as §2, §3, §4

[11] = test system: Cutaneous T cell lymphoma cell line; assay: as above; assay type: cell-based; settings: Homo sapiens, 1 cutaneous T cell lymphoma line, read-out: gIC50
Protocol: as §2, §3, §4

[12] = test system: Ovarian carcinoma cell line; assay: as above; assay type: cell-based; settings: Homo sapiens, 1 ovarian carcinoma line, read-out: gIC50
Protocol: as §2, §3, §4

[13] = positive control, maximal reduction observed, mouse LPS model

- IC50 [1]: 100 to 1000 nM
SMILES: COCC(C)n1c(C2CCOCC2)nc2cnc3cc(-c4c(C)noc4C)c(OC)cc3c21 (centres unmarked) [Example 1, 4-(8-methoxy-1-(1-methoxypropan-2-yl)-2-(tetrahydro-2H-pyran-4-yl)-1H-imidazo[4,5-c]quinolin-7-yl)-3,5-dimethylisoxazole]

- IC50 [1]: 100 to 1000 nM
- IC50 ([2]; Homo sapiens, median of 16 multiple myeloma cell lines, read-out: gIC50 (median)): 414 nM
- IC50 ([2]; Homo sapiens, range over 16 multiple myeloma cell lines, 72 hours, read-out: gIC50): ≥ 1.1 nM
- IC50 ([2]; range for 15 out of 16 multiple myeloma cell lines, read-out: gIC50): 1.1 to 2000 nM
- IC50 [3]: 266 to 847 nM
- IC50 [4]: 59 to 66 nM
- IC50 (Neuroblastoma cell lines; median of 12 neuroblastoma cell lines, read-out: gIC50 (median)): 193 nM
- IC50 (Neuroblastoma cell lines; range over 12 neuroblastoma cell lines, read-out: gIC50): 25 to 435 nM
- IC50 ([5]; median of 38 SCLC cell lines, read-out: gIC50 (median)): 538 nM
- IC50 ([5]; range for 35 of the 38 SCLC cell lines, read-out: gIC50): 76 to 2500 nM
- IC50 ([5]; range over 38 SCLC cell lines, 72 hours, read-out: gIC50): ≥ 76 nM
- IC50 [6]: 123 nM
- IC50 [7]: 141 nM
- IC50 [8]: 537 nM
- IC50 [9]: 181 to 807 nM
- IC50 [10]: 776 nM
- IC50 [11]: 162 nM
- IC50 [12]: 707 nM
SMILES: COC[C@@H](C)n1c(C2CCOCC2)nc2cnc3cc(-c4c(C)noc4C)c(OC)cc3c21 [Example 2, 4-(8-methoxy-1-((R)-1-methoxypropan-2-yl)-2-(tetrahydro-2H-pyran-4-yl)-1H-imidazo[4,5-c]quinolin-7-yl)-3,5-dimethylisoxazole]
- reduced maximum (Cmax) IL-6 levels (LPS-induced serum IL-6; 3 mg/kg single oral): 46%
- reduced total exposures (AUC) of IL-6 (LPS-induced serum IL-6; 3 mg/kg single oral): 35%
- reduced maximum (Cmax) IL-6 levels (LPS-induced serum IL-6; 10 mg/kg single oral): 79%
- reduced total exposures (AUC) of IL-6 (LPS-induced serum IL-6; 10 mg/kg single oral): 70%
- reduced maximum (Cmax) IL-6 levels (LPS-induced serum IL-6; 30 mg/kg single oral): 73%
- reduced total exposures (AUC) of IL-6 (LPS-induced serum IL-6; 30 mg/kg single oral): 63%
- IC50 (Esophageal cell lines; median of 8 esophageal cell lines, read-out: gIC50 (median)): 759 nM
- IC50 (Esophageal cell lines; range over 8 esophageal cell lines, read-out: gIC50): 208 to 1540 nM

SMILES: C[C@@H]1C[C@H]2[C@@H]3CCC4=CC(=O)C=C[C@]4(C)[C@@]3(F)[C@@H](O)C[C@]2(C)[C@@]1(O)C(=O)CO [dexamethasone, reference compound]
- reduction in IL-6 AUC (LPS-induced serum IL-6; [13]): 70%
- reduction in IL-6 Cmax (LPS-induced serum IL-6; [13]): 73%
